ChEMBL document CHEMBL4419173, “Small-molecule inhibitors targeting g-protein-coupled rho guanine nucleotide exchange factors” (2014)
Values belong to the compound of their own block, whether it stands above or below them. Activity calls are given as the source filed them. The calls are words filed in the database; no cut-off is given here.

Tests used:
MCF7 [1] = assay: Inhibition of RhoGEF in human MCF7 cells derived mammospheres assessed as inhibition of 10% calf serum-induced RhoA-GTP formation by measuring relative RhoA-GTP level at 10 uM incubated for 24 hrs by densitometry (reference value: 1); assay type: cell-based
[2] = molecular target: T1, RhoGEF 1/Transforming protein RhoA (Homo sapiens) (UniProt P61586+Q92888); assay: Binding affinity to human LARG (765 to 1138 residues) DH-PH module expressed in mouse NIH/3T3 cells assessed as reduction in LARG binding to human full length RhoA (1 to 193 residues) by measuring relative LARG binding level at 30 uM pull-down assay (reference value: 1 No unit); assay type: cell-based
[3] = molecular target: T1, RhoGEF 1/Transforming protein RhoA (Homo sapiens); assay: Binding affinity to human LARG (765 to 1138 residues) DH-PH module expressed in mouse NIH/3T3 cells assessed as reduction in LARG binding to human full length RhoA (1 to 193 residues) by measuring relative LARG binding level at 5 uM pull-down assay (reference value: 1 No unit); assay type: cell-based
Mus musculus [4] = organism: Mus musculus; assay: Inhibition of RhoGEF in mouse NIH/3T3 cells assessed as inhibition of 10% calf serum-induced RhoA-GTP formation by measuring relative RhoA-GTP level at 30 uM incubated for 24 hrs by densitometry (reference value: 1); assay type: cell-based
MCF7 [5] = assay: Growth inhibition of human MCF7 cells at 5 to 50 uM; assay type: functional, cell-based
MCF7 [6] = assay: Inhibition of RhoGEF in human MCF7 cells derived mammospheres assessed as inhibition of 10% calf serum-induced RhoA-GTP formation at 10 uM incubated for 24 hrs by densitometry relative to control; assay type: cell-based
Mus musculus [7] = organism: Mus musculus; assay: Inhibition of RhoGEF in mouse NIH/3T3 cells assessed as inhibition of 10% calf serum-induced RhoA-GTP formation by measuring relative RhoA-GTP level at 50 uM incubated for 24 hrs by densitometry (reference value: 1); assay type: cell-based
[8] = molecular target: T1, RhoGEF 1/Transforming protein RhoA (Homo sapiens); assay: Binding affinity to human LARG (765 to 1138 residues) DH-PH module expressed in mouse NIH/3T3 cells assessed as reduction in LARG binding to human full length RhoA (1 to 193 residues) by measuring relative LARG binding level at 10 uM pull-down assay (reference value: 1 No unit); assay type: cell-based
MCF7 [9] = assay: Inhibition of RhoGEF in human MCF7 cells derived mammospheres assessed as inhibition of RhoA-mediated phospho-MLC formation incubated for 24 hrs by densitometry; assay type: cell-based
[10] = molecular target: T2, Rho guanine nucleotide exchange factor 12 (Homo sapiens, UniProt Q9NZN5); assay: Inhibition of human LARG (765 to 1138 residues) RhoGEF binding to human full length RhoA (1 to 193 residues)
T2 sequence (Q9NZN5 whole entry, the tested form may be a part): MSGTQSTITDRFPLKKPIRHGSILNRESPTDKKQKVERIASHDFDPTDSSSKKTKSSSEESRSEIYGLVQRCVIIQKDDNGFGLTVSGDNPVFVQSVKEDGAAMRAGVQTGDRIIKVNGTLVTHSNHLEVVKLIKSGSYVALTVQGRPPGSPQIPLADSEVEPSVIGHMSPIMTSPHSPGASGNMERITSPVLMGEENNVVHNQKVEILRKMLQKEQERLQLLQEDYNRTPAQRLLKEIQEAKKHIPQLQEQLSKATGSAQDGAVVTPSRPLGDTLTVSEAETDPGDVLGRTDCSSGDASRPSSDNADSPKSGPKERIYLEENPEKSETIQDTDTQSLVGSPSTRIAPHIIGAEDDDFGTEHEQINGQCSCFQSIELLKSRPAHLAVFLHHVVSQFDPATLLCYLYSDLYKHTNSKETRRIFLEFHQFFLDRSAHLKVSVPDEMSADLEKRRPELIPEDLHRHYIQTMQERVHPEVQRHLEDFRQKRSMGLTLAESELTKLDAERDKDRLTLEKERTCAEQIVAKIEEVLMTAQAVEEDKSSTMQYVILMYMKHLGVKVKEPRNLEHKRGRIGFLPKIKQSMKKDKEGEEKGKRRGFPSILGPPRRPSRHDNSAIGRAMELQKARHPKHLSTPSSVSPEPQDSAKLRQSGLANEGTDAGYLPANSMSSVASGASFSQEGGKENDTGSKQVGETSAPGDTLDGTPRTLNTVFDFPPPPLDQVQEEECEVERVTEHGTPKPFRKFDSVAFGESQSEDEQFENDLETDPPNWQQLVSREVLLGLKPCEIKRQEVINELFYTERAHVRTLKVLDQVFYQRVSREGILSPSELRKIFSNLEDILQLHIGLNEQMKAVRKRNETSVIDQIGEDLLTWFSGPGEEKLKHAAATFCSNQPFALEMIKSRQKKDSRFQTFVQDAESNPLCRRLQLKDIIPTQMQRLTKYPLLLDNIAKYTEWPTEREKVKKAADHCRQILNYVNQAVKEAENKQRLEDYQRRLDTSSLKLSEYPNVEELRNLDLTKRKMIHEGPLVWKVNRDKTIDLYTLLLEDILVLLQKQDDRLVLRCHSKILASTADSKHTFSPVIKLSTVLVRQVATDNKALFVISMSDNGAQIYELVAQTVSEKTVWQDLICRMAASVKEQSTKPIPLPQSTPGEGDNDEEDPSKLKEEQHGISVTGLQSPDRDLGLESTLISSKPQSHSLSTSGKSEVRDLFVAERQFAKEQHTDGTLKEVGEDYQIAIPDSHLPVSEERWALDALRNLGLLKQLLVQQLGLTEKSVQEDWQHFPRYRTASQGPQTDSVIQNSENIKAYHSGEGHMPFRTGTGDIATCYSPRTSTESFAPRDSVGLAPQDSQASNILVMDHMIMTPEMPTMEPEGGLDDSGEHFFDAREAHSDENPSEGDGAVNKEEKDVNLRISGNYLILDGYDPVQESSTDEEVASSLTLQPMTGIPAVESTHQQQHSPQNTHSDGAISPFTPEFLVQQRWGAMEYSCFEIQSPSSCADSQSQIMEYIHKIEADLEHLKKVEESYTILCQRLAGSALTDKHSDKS

MCF7 [11] = assay: Inhibition of RhoGEF in human MCF7 cells derived mammospheres assessed as inhibition of 10% calf serum-induced RhoA-GTP formation by measuring relative RhoA-GTP level at 30 uM incubated for 24 hrs by densitometry (reference value: 1); assay type: cell-based
Mus musculus [12] = organism: Mus musculus; assay: Inhibition of RhoGEF in mouse NIH/3T3 cells assessed as inhibition of 10% calf serum-induced RhoA-GTP formation by measuring reduction in RhoA-GTP level at 30 uM incubated for 24 hrs by densitometry relative to control; assay type: cell-based
Mus musculus [13] = organism: Mus musculus; assay: Inhibition of RhoGEF in mouse NIH/3T3 cells assessed as reduction in 10% calf serum-induced rhoA-mediated actin stress fiber formation at 10 uM by rhodamine-phalloidin staining based assay; assay type: cell-based
MCF7 [14] = assay: Inhibition of cell invasion of human MCF7 cells at 10 to 50 uM by Matrigel-coated transwell based assay; assay type: functional
[15] = molecular target: T1, RhoGEF 1/Transforming protein RhoA (Homo sapiens); assay: Binding affinity to human LARG (765 to 1138 residues) DH-PH module expressed in mouse NIH/3T3 cells assessed as reduction in LARG binding to human full length RhoA (1 to 193 residues) by measuring relative LARG binding level at 50 uM pull-down assay (reference value: 1 No unit); assay type: cell-based
MCF7 [16] = assay: Inhibition of RhoGEF in human MCF7 cells derived mammospheres assessed as inhibition of 10% calf serum-induced RhoA-GTP formation by measuring relative RhoA-GTP level incubated for 24 hrs by densitometry (reference value: 1); assay type: cell-based
MCF7 [17] = assay: Inhibition of RhoGEF in human MCF7 cells derived mammospheres assessed as inhibition of RhoA-mediated phospho-MLC formation at 10 uM incubated for 24 hrs by densitometry; assay type: cell-based
MCF7 [18] = assay: Inhibition of cell migration of human MCF7 cells at 10 to 50 uM; assay type: functional, cell-based
Mus musculus [19] = organism: Mus musculus; assay: Inhibition of RhoGEF in mouse NIH/3T3 cells assessed as inhibition of 10% calf serum-induced Rac1-GTP formation by measuring relative Rac1-GTP level at 50 uM incubated for 24 hrs by densitometry (reference value: 1); assay type: cell-based
MCF7 [20] = assay: Inhibition of RhoGEF in human MCF7 cells derived mammospheres assessed as inhibition of 10% calf serum-induced RhoA-GTP formation by measuring relative RhoA-GTP level at 5 uM incubated for 24 hrs by densitometry (reference value: 1); assay type: cell-based
Mus musculus [21] = organism: Mus musculus; assay: Inhibition of RhoGEF in mouse NIH/3T3 cells assessed as inhibition of 10% calf serum-induced Cdc42-GTP formation by measuring relative Cdc42-GTP level at 50 uM incubated for 24 hrs by densitometry (reference value: 1); assay type: cell-based
Mus musculus [22] = organism: Mus musculus; assay: Inhibition of RhoGEF in mouse NIH/3T3 cells assessed as inhibition of 10% calf serum-induced RhoA-GTP formation by measuring relative RhoA-GTP level at 10 uM incubated for 24 hrs by densitometry (reference value: 1); assay type: cell-based
[23] = molecular target: Rho GEF 12/Transforming protein RhoA (Homo sapiens) (UniProt P61586+Q9NZN5); assay: Inhibition of His6-tagged human LARG PH-DH domain expressed in mouse NIH/3T3 cells assessed as reduction in human full length GST-tagged RhoA (1 to 193 residues) interaction with LARG RhoGEF at 100 uM incubated for 1 hr by Western blot analysis relative to Y16; assay type: cell-based
[24] = molecular target: T2, Rho guanine nucleotide exchange factor 12; assay: Inhibition of human LARG (765 to 1138 residues) RhoGEF-catalyzed guanine nucleotide-exchange reaction of human full length RhoA (1 to 193 residues) by measuring inhibition of TR-GTP association to RhoA by BODIPY-Texas Red(TR)-GTP nucleotide based assay
[25] = molecular target: T2, Rho guanine nucleotide exchange factor 12; assay: Inhibition of human LARG (765 to 1138 residues) RhoGEF-catalyzed guanine nucleotide-exchange reaction of human full length RhoA (1 to 193 residues) by measuring inhibition of FL-GDP dissociation from RhoA by BODIPY-fluorescein(FL)-GDP nucleotide based assay

Structure (SMILES): COc1cc(/C=C2/C(=O)NN(c3ccccc3)C2=O)cc(Br)c1OCCOc1ccc(C)cc1
inhibition [23]: 13.8%

Structure (SMILES): O=C(O)C1Nc2c(Cl)cc(Cl)cc2C2C=CCC12 (centres undefined)
inhibition [24]: Dose-dependent effect
inhibition [25]: Dose-dependent effect

Structure (SMILES): COc1cc(/C=C2/C(=O)NN(c3ccccc3)C2=O)ccc1O
inhibition [23]: 13%

Further lines, with some results ahead:

fold change (FC) [2]: 0.45
fold change (FC) [3]: 0.92
fold change (FC) [8]: 0.63
IC50 [10]: 10 µM
fold change (FC) [15]: 0.15
Structure (SMILES): N[C@H](Cc1c[nH]c2ccccc12)C(=O)N/N=C/c1ccc2nccnc2c1
fold change (FC) (MCF7 [1]): 0.65
fold change (FC) (Mus musculus [4]): 0.38
growth inhibition (GI) (MCF7 [5]): Active
inhibition (MCF7 [6]): 50%
fold change (FC) (Mus musculus [7]): 0.19
inhibition (MCF7 [9]): Dose-dependent effect
fold change (FC) (MCF7 [11]): 0.32
inhibition (Mus musculus [12]): 80%
inhibition (Mus musculus [13]): Active
inhibition (MCF7 [14]): Active
inhibition (MCF7 [16]): Dose-dependent effect
inhibition (MCF7 [17]): 50%
inhibition (MCF7 [18]): Active
fold change (FC) (Mus musculus [19]): 0.89
fold change (FC) (MCF7 [20]): 0.98
fold change (FC) (Mus musculus [21]): 0.96
fold change (FC) (Mus musculus [22]): 0.7

inhibition [23]: 6.57%
Structure (SMILES): O=C1NN(c2ccccc2)C(=O)/C1=C\C1=NCc2ccccc21

inhibition [23]: 27.1%
Structure (SMILES): O=C1NN(c2ccccc2)C(=O)/C1=C/c1ccc(OCc2ccccc2)cc1

inhibition [23]: 7.34%
Structure (SMILES): O=C1/C(=C\c2ccccc2OCc2ccccc2)CNN1c1ccc(Br)cc1
